Test results from the supplement of paper PMC10307832.

Tests used:
Assay in all cases: relative viability (nuclei count vs DMSO), 5 days (fraction); higher = more cells survive
Crizotinib + AZD7762 = compound: C[C@@H](Oc1cc(-c2cnn(C3CCNCC3)c2)cnc1N)c1c(Cl)ccc(F)c1Cl [Crizotinib] + NC(=O)Nc1cc(-c2cccc(F)c2)sc1C(=O)N[C@H]1CCCNC1 [AZD7762] (partner 0.2 µM)
How it was run: (§1)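 Nuclei were stained with Hoechst during a one-step fixation (final 0.05% Triton X-100, 1% formaldehyde, 1 ug/ml Hoechst) carried out 5 days after dosing, then counted on 4× images. The cells, lung cancer lines in 1536-well plates, had been dosed by pin tool the day after seeding with one drug alone or a fixed anchor-drug dose plus five library-drug doses (not always all listed) in √10 steps. Relative viability is the nuclei count in treated wells divided by that in vehicle wells, and each value is the median of duplicate plates.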

Carfilzomib + Phenformin = compound: CC(C)C[C@H](NC(=O)[C@H](CCc1ccccc1)NC(=O)CN1CCOCC1)C(=O)N[C@@H](Cc1ccccc1)C(=O)N[C@@H](CC(C)C)C(=O)[C@@]1(C)CO1 [Carfilzomib] + N=C(N)NC(=N)NCCc1ccccc1 [Phenformin] (partner 250 µM)
How it was run: as §1

Carfilzomib + Alpelisib = compound: CC(C)C[C@H](NC(=O)[C@H](CCc1ccccc1)NC(=O)CN1CCOCC1)C(=O)N[C@@H](Cc1ccccc1)C(=O)N[C@@H](CC(C)C)C(=O)[C@@]1(C)CO1 [Carfilzomib] + Cc1nc(NC(=O)N2CCC[C@H]2C(N)=O)sc1-c1ccnc(C(C)(C)C(F)(F)F)c1 [Alpelisib] (partner 2 µM)
How it was run: as §1

Olaparib + Alpelisib = compound: O=C(c1cc(Cc2n[nH]c(=O)c3ccccc23)ccc1F)N1CCN(C(=O)C2CC2)CC1 [Olaparib] + Cc1nc(NC(=O)N2CCC[C@H]2C(N)=O)sc1-c1ccnc(C(C)(C)C(F)(F)F)c1 [Alpelisib] (partner 2 µM)
How it was run: as §1

Crizotinib + Tozasertib = compound: C[C@@H](Oc1cc(-c2cnn(C3CCNCC3)c2)cnc1N)c1c(Cl)ccc(F)c1Cl [Crizotinib] + Cc1cc(Nc2cc(N3CCN(C)CC3)nc(Sc3ccc(NC(=O)C4CC4)cc3)n2)n[nH]1 [Tozasertib] (partner 0.1 µM)
How it was run: as §1

NCI-H1793
relative viability (Crizotinib + AZD7762; first compound 0.03162 µM): 0.435 | relative viability (Crizotinib + AZD7762; first compound 0.1 µM): 0.41 | relative viability (Crizotinib + AZD7762; first compound 1 µM): 0.621 | relative viability (Carfilzomib + Phenformin; first compound 0.003162 µM): 0.404 | relative viability (Carfilzomib + Phenformin; first compound 0.01 µM): 0.296 | relative viability (Carfilzomib + Phenformin; first compound 0.03162 µM): 0.407 | relative viability (Carfilzomib + Phenformin; first compound 0.1 µM): 0.261 | relative viability (Carfilzomib + Alpelisib; first compound 0.003162 µM): 0.767 | relative viability (Carfilzomib + Alpelisib; first compound 0.01 µM): 0.804 | relative viability (Carfilzomib + Alpelisib; first compound 0.03162 µM): 0.68 | relative viability (Carfilzomib + Alpelisib; first compound 0.1 µM): 0.356 | relative viability (Olaparib + Alpelisib; first compound 0.08 µM): 0.683 | relative viability (Olaparib + Alpelisib; first compound 0.253 µM): 0.664 | relative viability (Olaparib + Alpelisib; first compound 2.53 µM): 0.768 | relative viability (Olaparib + Alpelisib; first compound 8 µM): 0.601 | relative viability (Crizotinib + Tozasertib; first compound 0.03162 µM): 0.342 | relative viability (Crizotinib + Tozasertib; first compound 0.1 µM): 0.32 | relative viability (Crizotinib + Tozasertib; first compound 1 µM): 0.449
